{"source": "patent US11230555B2", "about": "“Bicyclic RORγ modulators” (Escalier Biosciences B.V., priority 2018, dated 2022)", "note": "pIC50: −log10 of the molar value.", "data": [{"molecular_target": "T1, RORγt (Homo sapiens, UniProt P51449)", "T1 construct": "purchased reporter-cell kit", "T1 sequence (P51449 269-508 limits assumed)": "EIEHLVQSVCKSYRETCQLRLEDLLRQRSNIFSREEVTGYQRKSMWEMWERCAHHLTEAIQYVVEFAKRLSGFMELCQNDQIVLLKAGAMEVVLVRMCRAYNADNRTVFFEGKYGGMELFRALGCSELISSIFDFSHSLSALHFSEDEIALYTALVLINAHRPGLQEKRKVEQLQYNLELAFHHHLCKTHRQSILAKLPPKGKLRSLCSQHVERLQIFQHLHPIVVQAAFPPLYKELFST", "experiment": "Gal4 ligand binding assay (RORγt Gal fusion reporter assay)", "type": "cell-based", "conditions": "inverse agonists, luciferase reporter, 24h", "experimental": "Compounds of the present invention were tested in a human RORγ ligand binding assay using a commercially available cell based ligand binding reporter assay in 96-well format (Cat #IB04001, INDIGO Biosciences, State College, Pa.). The N-terminal DNA binding domains (DBD) of the native RORγ and RORγt receptors have been substituted with that of the yeast GAL4-DBD and stably transfected in […] cells that also stably express luciferase under the regulation by upstream activation sequence of yeast Gal4. These cells constitutively express high level RORγ activity due to binding of endogenous co-factors. Both agonist and inverse agonist activity can be detected. The assay was performed according to kit manufacturer's instructions as follows. 10 mM compound stocks were diluted serially 1:3 with DMSO and further diluted with provided media to generate 10 titration points from 60 μM to 3 nM. These treatment conditions were added to the plates as 2× media in 100 μL volume. Each plate includes a positive control with 10 titration points as well as 6negative control wells with vehicle only, with final DMSO concentration of 0.2%. RORγ reporter cells were rapidly thawed and added to the plates in 100 μL volume. The plates were incubated for 24h in a 37° C. humidified 5% CO2incubator. Media was removed before the addition of room temperature luciferous detection substrate. After 5 minute incubation, relative light units (RLUs) were quantified using a plate reading luminometer. Data was normalized to positive control wells with only […]. Before establishing internal controls, ursolic acid was used as control.", "values": [{"smiles": "OC(c1ccc(-c2ccc(CN3CC4CCC(C3)N4Cc3ccncc3)cc2)cc1)(C(F)(F)F)C(F)(F)F", "note": "[Example 1, 1,1,1,3,3,3-hexafluoro-2-(4′-((8-(pyridin-4-ylmethyl)-3,8-diazabicyclo[3.2.1]octan-3-yl)methyl)-[1,1′-biphenyl]-4-yl)propan-2-ol]", "pIC50": "6.60 to 7.30"}, {"smiles": "OC(c1ccc(-c2ccc(CN3C4CCC3CN(Cc3ccncc3)C4)cc2)cc1)(C(F)(F)F)C(F)(F)F", "note": "[Example 2, 1,1,1,3,3,3-hexafluoro-2-(4′-((3-(pyridin-4-ylmethyl)-3,8-diazabicyclo[3.2.1]octan-8-yl)methyl)-[1,1′-biphenyl]-4-yl)propan-2-ol]", "pIC50": "< 6.60"}, {"smiles": "CCc1cc(CN2CC3CCC(C2)N3S(C)(=O)=O)ncc1-c1ccc(C(O)(C(F)(F)F)C(F)(F)F)cc1C", "note": "[Example 3, 2-(4-(4-ethyl-6-((8-(methylsulfonyl)-3,8-diazabicyclo[3.2.1]octan-3-yl)methyl)pyridin-3-yl)-3-methylphenyl)-1,1,1,3,3,3-hexafluoropropan-2-ol]", "pIC50": "6.60 to 7.30"}, {"smiles": "CCc1cc(CN2CC3CCC(C2)N3S(C)(=O)=O)ncc1-c1ccc(C(O)(C(F)(F)F)C(F)(F)F)cc1Cl", "note": "[Example 4, 2-(3-chloro-4-(4-ethyl-6-((8-(methylsulfonyl)-3,8-diazabicyclo[3.2.1]octan-3-yl)methyl)pyridin-3-yl)phenyl)-1,1,1,3,3,3-hexafluoropropan-2-ol]", "pIC50": "6.60 to 7.30"}, {"smiles": "CCc1nc(CN2CC3CCC(C2)N3S(C)(=O)=O)ccc1-c1ccc(C(O)(C(F)(F)F)C(F)(F)F)cc1C", "note": "[Example 5, 2-(4-(2-ethyl-6-((8-(methylsulfonyl)-3,8-diazabicyclo[3.2.1]octan-3-yl)methyl)pyridin-3-yl)-3-methylphenyl)-1,1,1,3,3,3-hexafluoropropan-2-ol]", "pIC50": "< 6.60"}, {"smiles": "CCc1cc(CN2C3CCC2CN(S(C)(=O)=O)C3)ccc1-c1ccc(C(O)(C(F)(F)F)C(F)(F)F)cc1", "note": "[Example 6, 2-(2′-ethyl-4′-((3-(methylsulfonyl)-3,8-diazabicyclo[3.2.1]octan-8-yl)methyl)-[1,1′-biphenyl]-4-yl)-1,1,1,3,3,3-hexafluoropropan-2-ol]", "pIC50": "6.60 to 7.30"}, {"smiles": "CCc1cc(CN2C3CCC2CN(S(C)(=O)=O)C3)ccc1-c1ccc(C(O)(C(F)(F)F)C(F)(F)F)cc1Cl", "note": "[Example 7, 2-(2-chloro-2′-ethyl-4′-((3-(methylsulfonyl)-3,8-diazabicyclo[3.2.1]octan-8-yl)methyl)-[1,1′-biphenyl]-4-yl)-1,1,1,3,3,3-hexafluoropropan-2-ol]", "pIC50": "> 7.30"}, {"smiles": "CCc1cc(CN2[C@@H]3COC[C@H]2CN(S(C)(=O)=O)C3)ccc1-c1ccc(C(O)(C(F)(F)F)C(F)(F)F)cc1", "note": "[Example 8, 2-(2′-ethyl-4′-(((1R,5S)-7-(methylsulfonyl)-3-oxa-7,9-diazabicyclo[3.3.1]nonan-9-yl)methyl)-[1,1′-biphenyl]-4-yl)-1,1,1,3,3,3-hexafluoropropan-2-ol]", "pIC50": "6.60 to 7.30"}, {"smiles": "CS(=O)(=O)N1C2CCC1CN(c1cccc(-c3ccc(C(O)(C(F)(F)F)C(F)(F)F)cc3)c1)C2", "note": "[Example 9, 1,1,1,3,3,3-hexafluoro-2-(3′-(8-(methylsulfonyl)-3,8-diazabicyclo[3.2.1]octan-3-yl)-[1,1′-biphenyl]-4-yl)propan-2-ol]", "pIC50": "< 6.60"}, {"smiles": "CCc1c(-c2ccc(C(O)(C(F)(F)F)C(F)(F)F)cc2Cl)cc(F)c(CN2CC3CCC(C2)N3S(C)(=O)=O)c1F", "note": "[Example 10, 2-(2-chloro-2′-ethyl-3′,5′-difluoro-4′-((8-(methylsulfonyl)-3,8-diazabicyclo[3.2.1]octan-3-yl)methyl)-[1,1′-biphenyl]-4-yl)-1,1,1,3,3,3-hexafluoropropan-2-ol]", "pIC50": "> 7.30"}, {"smiles": "CCc1c(F)c(CN2CC3CCC(C2)N3S(C)(=O)=O)cc(F)c1-c1ccc(C(O)(C(F)(F)F)C(F)(F)F)cc1Cl", "note": "[Example 11, 2-(2-chloro-2′-ethyl-3′,6′-difluoro-4′-((8-(methylsulfonyl)-3,8-diazabicyclo[3.2.1]octan-3-yl)methyl)-[1,1′-biphenyl]-4-yl)-1,1,1,3,3,3-hexafluoropropan-2-ol]", "pIC50": "> 7.30"}, {"smiles": "CCc1cc(CN2CC3COCC(C2)N3S(C)(=O)=O)ccc1-c1ccc(C(O)(C(F)(F)F)C(F)(F)F)cc1", "note": "[Example 12, 2-(2′-ethyl-4′-((9-(methylsulfonyl)-3-oxa-7,9-diazabicyclo[3.3.1]nonan-7-yl)methyl)-[1,1′-biphenyl]-4-yl)-1,1,1,3,3,3-hexafluoropropan-2-ol]", "pIC50": "6.60 to 7.30"}, {"smiles": "CCc1c(-c2ccc(C(O)(C(F)(F)F)C(F)(F)F)cc2F)cc(F)c(CN2CC3CCC(C2)N3S(C)(=O)=O)c1F", "note": "[Example 13, 2-(2′-ethyl-2,3′,5′-trifluoro-4′-((8-(methylsulfonyl)-3,8-diazabicyclo[3.2.1]octan-3-yl)methyl)-[1,1′-biphenyl]-4-yl)-1,1,1,3,3,3-hexafluoropropan-2-ol]", "pIC50": "> 7.30"}, {"smiles": "CCc1c(-c2ccc(C(O)(C(F)(F)F)C(F)(F)F)cc2)cc(F)c(CN2CC3CCC(C2)N3S(C)(=O)=O)c1F", "note": "[Example 14]", "pIC50": "> 7.30"}, {"smiles": "CC(C)c1cc(CN2CC3CCC(C2)N3S(C)(=O)=O)c(F)cc1-c1ccc(C(O)(C(F)(F)F)C(F)(F)F)cc1Cl", "note": "[Example 15, 2-(2-chloro-5′-fluoro-2′-isopropyl-4′-((8-(methylsulfonyl)-3,8-diazabicyclo[3.2.1]octan-3-yl)methyl)-[1,1′-biphenyl]-4-yl)-1,1,1,3,3,3-hexafluoropropan-2-ol]", "pIC50": "> 7.30"}, {"smiles": "CCc1cc(CN2CC3CCC(C2)N3S(C)(=O)=O)cc(F)c1-c1ccc(C(O)(C(F)(F)F)C(F)(F)F)cc1", "note": "[Example 16, 2-(2′-ethyl-6′-fluoro-4′-((8-(methylsulfonyl)-3,8-diazabicyclo[3.2.1]octan-3-yl)methyl)-[1,1′-biphenyl]-4-yl)-1,1,1,3,3,3-hexafluoropropan-2-ol]", "pIC50": "> 7.30"}, {"smiles": "CCc1cc(CN2CC3CCC(C2)N3S(C)(=O)=O)cc(F)c1-c1ccc(C(O)(C(F)(F)F)C(F)(F)F)cc1F", "note": "[Example 17, 2-(2′-ethyl-2,6′-difluoro-4′-((8-(methylsulfonyl)-3,8-diazabicyclo[3.2.1]octan-3-yl)methyl)-[1,1′-biphenyl]-4-yl)-1,1,1,3,3,3-hexafluoropropan-2-ol]", "pIC50": "> 7.30"}, {"smiles": "CCc1cc(CN2CC3CCC(C2)N3S(C)(=O)=O)cc(F)c1-c1ccc(C(O)(C(F)(F)F)C(F)(F)F)cc1Cl", "note": "[Example 18, 2-(2-chloro-2′-ethyl-6′-fluoro-4′-((8-(methylsulfonyl)-3,8-diazabicyclo[3.2.1]octan-3-yl)methyl)-[1,1′-biphenyl]-4-yl)-1,1,1,3,3,3-hexafluoropropan-2-ol]", "pIC50": "> 7.30"}, {"smiles": "CCc1cc(CN2CC3CCC(C2)N3S(C)(=O)=O)c(F)cc1-c1ccc(C(O)(C(F)(F)F)C(F)(F)F)cc1Cl", "note": "[Example 19, 2-(2-chloro-2′-ethyl-5′-fluoro-4′-((8-(methylsulfonyl)-3,8-diazabicyclo[3.2.1]octan-3-yl)methyl)-[1,1′-biphenyl]-4-yl)-1,1,1,3,3,3-hexafluoropropan-2-ol]", "pIC50": "> 7.30"}, {"smiles": "Cc1cc(C(O)(C(F)(F)F)C(F)(F)F)ccc1-c1cc(F)c(CN2CC3CCC(C2)N3S(C)(=O)=O)cc1C(C)C", "note": "[Example 20, 1,1,1,3,3,3-hexafluoro-2-(5′-fluoro-2′-isopropyl-2-methyl-4′-((8-(methylsulfonyl)-3,8-diazabicyclo[3.2.1]octan-3-yl)methyl)-[1,1′-biphenyl]-4-yl)propan-2-ol]", "pIC50": "6.60 to 7.30"}, {"smiles": "CC(C)c1cc(CN2CC3CCC(C2)N3S(C)(=O)=O)ccc1-c1ccc(C(O)(C(F)(F)F)C(F)(F)F)cc1F", "note": "[Example 21]", "pIC50": "6.60 to 7.30"}]}]}
